# Reference: article PMC10353187, “Discovery of a new potent oxindole multi-kinase inhibitor among a series of designed 3-alkenyl-oxindoles with ancillary carbonic anhydrase inhibitory activity as antiproliferative agents” (BMC Chemistry, 2023)
# How the values were obtained:
# hCA XII = hCA XII (Homo sapiens, UniProt O43570); assay: Stopped flow CO2 hydrase assay; conditions: for Selectivity ratio I/XII: Ki hCA I / Ki hCA XII; for Selectivity ratio II/XII: Ki hCA II / Ki hCA XII
# OVCAR-4 = assay: NCI-60 single-dose antiproliferative assay (SRB); type: cell-based; conditions: Homo sapiens; 10 μM single dose; OVCAR-4, Ovarian Cancer; read-out: Cell Growth inhibition Percent
# Description: (§1) From the newly synthesized compounds, eleven compounds (4c, 4d, 5, 9a, 9b, 11a, 11b, 13b, 13c, 15b, and 15c) were selected by the National Cancer Institute (NCI) Developmental Therapeutics Program (DTP), Bethesda, Maryland, USA for the in vitro anti-proliferative activity evaluation. The selected compounds were examined at 10 μM dose against the NCI 60-cell line panel. This panel consists of nine cell line groups of leukemia, non-small cell lung carcinoma (NSCLC), melanoma, colon, CNS, ovarian, renal, prostate, and breast cancers. The results are reported as mean-graph of the percent growth relative to control and presented as percentage growth inhibition (GI%), furthermore, mean GI% of each compound over all panel cell lines was calculated (Table 1; Additional file 1; S3: In vitro biological activity).
# (§2) From the newly synthesized compounds, eleven compounds were selected by the National Cancer Institute (NCI) Developmental Therapeutics Program (DTP), Bethesda, Maryland, USA for the in vitro anti-proliferative activity evaluation (For further details see supplementary materials).
# (§3) NCI In-vitro Cancer Screening is a two-phase procedure that starts with the assessment of all compounds against the sixty NCI cell line panel depicting leukemia, NSCLC, CNS cancer, melanoma, prostate cancer, breast cancer, renal cancer, colon cancer and ovarian cancer cell lines at a single point of 10μM. The output from the single-dose screen is reportable as a mean graph.
# (§4) The human tumor cell lines of the cancer screening panel were grown in RPMI 1640 medium containing 5% fetal bovine serum and 2 mM L-glutamine. For a typical screening experiment, cells were inoculated into 96 well microtiter plates in […] at plating densities ranging from 5000 to 40,000 cells/well depending on the doubling time of individual cell lines. After cell inoculation, the microtiter plates were incubated at 37 °C, 5% CO2, 95% air and 100% relative humidity for 24 h prior to addition of experimental drugs. After 24 h, two plates of each cell line were fixed in situ with trichloroacetic acid (TCA), to represent a measurement of the cell population for each cell line at the time of drug addition (Tz). Experimental drugs were solubilized in dimethyl sulfoxide at 400-fold the desired final maximum test concentration and stored frozen prior to use. At the time of drug addition, an aliquot of frozen concentrate was thawed and diluted to twice the desired final maximum test concentration with complete medium containing 50 µg/ml gentamicin. Aliquot of 100 µl of the drug dilution was added to the appropriate microtiter wells already containing 100 µl of medium, resulting in the required final drug concentration (10 µM). Triplicate wells were prepared for each individual dose. Following drug addition, the plates were incubated for an additional 48 h at 37 °C, 5% CO2, 95% air, and 100% relative humidity. For adherent cells, the assay was terminated by the addition of cold TCA. Cells were fixed in situ by the gentle addition of 50 µl of cold 50% (w/v) TCA (final concentration, 10% TCA) and incubated for 60 min at 4 °C. The supernatant was discarded, and the plates were washed five times with tap water and air dried. Sulforhodamine B (SRB) solution (100 µl) at 0.4% (w/v) in 1% acetic acid was added to each well, and plates were incubated for 10 min at room temperature. After staining, unbound dye was removed by washing five times with 1% acetic acid and the plates were air dried. Bound stain was subsequently solubilized with 10 mM trizma base, and the absorbance was read on an automated plate reader at a wavelength of 515 nm. For suspension cells, the methodology was the same except that the assay was terminated by fixing settled cells at the bottom of the wells by gently adding 50 µl of 80% TCA (final concentration, 16% TCA). […]
# SF-268 = assay: NCI-60 single-dose antiproliferative assay (SRB); type: cell-based; conditions: Homo sapiens; 10 μM single dose; SF-268, CNS cancer; read-out: Cell Growth inhibition Percent
# Description: as §1, §2, §3, §4
# CAKI-1 = assay: NCI-60 single-dose antiproliferative assay (SRB); type: cell-based; conditions: Homo sapiens; 10 μM single dose; CAKI-1, Renal cancer; read-out: Cell Growth inhibition Percent
# Description: as §1, §2, §3, §4
# SNB-75 = assay: NCI-60 single-dose antiproliferative assay (SRB); type: cell-based; conditions: Homo sapiens; 10 μM single dose; SNB-75, CNS cancer; read-out: Cell Growth inhibition Percent
# Description: as §1, §2, §3, §4
# NCI-H23 = assay: NCI-60 single-dose antiproliferative assay (SRB); type: cell-based; conditions: Homo sapiens; 10 μM single dose; NCI-H23, Non-small cell lung cancer; read-out: Cell Growth inhibition Percent
# Description: as §1, §2, §3, §4
# MDA-MB-231/ATCC = assay: NCI-60 single-dose antiproliferative assay (SRB); type: cell-based; conditions: Homo sapiens, 10 μM single dose, Breast cancer, read-out: Cell Growth inhibition Percent
# Description: as §1, §2, §3, §4
# LOX IMVI = assay: NCI-60 single-dose antiproliferative assay (SRB); type: cell-based; conditions: Homo sapiens, 10 μM single dose, Melanoma, read-out: Cell Growth inhibition Percent
# Description: as §1, §2, §3, §4
# MCF7 = assay: NCI-60 single-dose antiproliferative assay (SRB); type: cell-based; conditions: Homo sapiens; 10 μM single dose; MCF7, Breast cancer; read-out: Cell Growth inhibition Percent
# Description: as §1, §2, §3, §4
# SR = assay: NCI-60 single-dose antiproliferative assay (SRB); type: cell-based; conditions: Homo sapiens, 10 μM single dose, Leukemia, read-out: Cell Growth inhibition Percent
# Description: as §1, §2, §3, §4
# HOP-92 = assay: NCI-60 single-dose antiproliferative assay (SRB); type: cell-based; conditions: Homo sapiens; 10 μM single dose; HOP-92, Non-small cell lung cancer; read-out: Cell Growth inhibition Percent
# Description: as §1, §2, §3, §4
# PC-3 = assay: NCI-60 single-dose antiproliferative assay (SRB); type: cell-based; conditions: Homo sapiens; 10 μM single dose; PC-3, Prostate cancer; read-out: Cell Growth inhibition Percent
# Description: as §1, §2, §3, §4
# EKVX = assay: NCI-60 single-dose antiproliferative assay (SRB); type: cell-based; conditions: Homo sapiens, 10 μM single dose, Non-small cell lung cancer, read-out: Cell Growth inhibition Percent
# Description: as §1, §2, §3, §4
# KM12 = assay: NCI-60 single-dose antiproliferative assay (SRB); type: cell-based; conditions: Homo sapiens; 10 μM single dose; KM12, Colon cancer; read-out: Cell Growth inhibition Percent
# Description: as §1, §2, §3, §4
# NCI 60 cancer cell lines = assay: NCI-60 single-dose antiproliferative assay, mean over panel; type: cell-based; conditions: Homo sapiens; 10 μM single dose; mean over all NCI panel cell lines; read-out: MEAN % Growth inhibition
# Description: as §1, §2, §3, §4
# UO-31 = assay: NCI-60 single-dose antiproliferative assay (SRB); type: cell-based, human; conditions: UO-31, Renal cancer; for inhibition at 10 µM: Homo sapiens, UO-31, 10 μM single dose, read-out: Cell Growth inhibition Percent
# Description: as §1, §2, §3, §4
# hCA II = hCA II (Homo sapiens, UniProt P00918); assay: Stopped flow CO2 hydrase assay
# hCA I = hCA I (Homo sapiens, UniProt P00915); assay: Stopped flow CO2 hydrase assay
# Chain of hCA I (P00915 whole entry): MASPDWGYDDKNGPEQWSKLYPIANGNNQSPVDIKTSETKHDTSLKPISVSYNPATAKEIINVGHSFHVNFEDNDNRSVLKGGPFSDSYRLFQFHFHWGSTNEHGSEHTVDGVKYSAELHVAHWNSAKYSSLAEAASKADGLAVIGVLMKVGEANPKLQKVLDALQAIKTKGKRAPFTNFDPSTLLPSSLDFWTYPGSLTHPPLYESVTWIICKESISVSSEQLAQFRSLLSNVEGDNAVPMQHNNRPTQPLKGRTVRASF
# Chain of hCA XII (O43570 25-354): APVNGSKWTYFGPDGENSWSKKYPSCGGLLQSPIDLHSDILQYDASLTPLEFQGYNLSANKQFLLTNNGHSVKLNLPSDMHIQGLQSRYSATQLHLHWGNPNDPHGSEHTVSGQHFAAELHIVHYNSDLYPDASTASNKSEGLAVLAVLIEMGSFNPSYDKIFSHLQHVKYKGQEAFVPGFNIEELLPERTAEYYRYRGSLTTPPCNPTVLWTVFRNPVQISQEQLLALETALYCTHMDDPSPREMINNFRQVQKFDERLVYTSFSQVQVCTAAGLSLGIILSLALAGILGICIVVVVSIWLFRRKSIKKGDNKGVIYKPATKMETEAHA
melting point,Ki (hCA XII),Ki (hCA II),Ki (hCA I),Selectivity ratio I/XII (hCA XII),SMILES,inhibition at 10 µM (OVCAR-4),inhibition at 10 µM (SF-268),inhibition at 10 µM (CAKI-1),inhibition at 10 µM (SNB-75),inhibition at 10 µM (NCI-H23),inhibition at 10 µM (MDA-MB-231/ATCC),inhibition at 10 µM (LOX IMVI),inhibition at 10 µM (MCF7),inhibition at 10 µM (SR),inhibition at 10 µM (HOP-92),inhibition at 10 µM (PC-3),inhibition at 10 µM (EKVX),inhibition at 10 µM (KM12),inhibition at 10 µM (NCI 60 cancer cell lines),inhibition at 10 µM (UO-31),also measured
> 300 °C,> 10000 nM,8670 nM,6320 nM,–,"O=C1Nc2ccccc2C1=CNc1ccc(C(=O)O)cc1 [Compound 4c, 4-{[(2-Oxoindolin-3-ylidene)methyl]amino}benzoic acid]",13.3%,16.4%,29.1%,44.3%,7.13%,4.54%,6.93%,1.59%,4.7%,16.4%,7.71%,24.3%,49.2%,3.71%,49.7%,–
210 to 216 °C,8.7 nM,3.9 nM,8.4 nM,0.966,"NS(=O)(=O)c1nnc(NC=C2C(=O)Nc3ccccc32)s1 [Compound 4d, 5-{[(2-Oxoindolin-3-ylidene)methyl]amino}-1,3,4-thiadiazole-2-sulfonamide]",1.55%,–,13.5%,18.8%,3.7%,7.66%,–,12.4%,1.71%,11.9%,10.7%,15.8%,4.63%,–,27.5%,Selectivity ratio II/XII (hCA XII): 0.448
158 to 160 °C,42.4 nM,913 nM,6350 nM,149.65,"NS(=O)(=O)N/C=C1/C(=O)Nc2ccccc21 [Compound 5, 3-(sulfamidmethylene)indoline-2-one]",–,2.04%,11.2%,16.5%,13.3%,5.14%,–,6.19%,–,11%,5.36%,18.8%,1.51%,–,34.6%,Selectivity ratio II/XII (hCA XII): 21.54
195 to 200 °C,78.6 nM,746 nM,321 nM,4.08,"NS(=O)(=O)c1ccc(NCc2ccc(NC=C3C(=O)Nc4ccccc43)cc2)cc1 [Compound 11a, 4-{[4-({[2-Oxoindolin-3-ylidene]methyl}amino)benzyl]amino}benzenesulfonamide]",12.6%,11.3%,34.7%,32.8%,12%,16.5%,3.3%,23%,18.7%,–,7.36%,47.4%,13.9%,2.58%,44%,Selectivity ratio II/XII (hCA XII): 9.50
–,8570 nM,2660 nM,9110 nM,1.06,"O=C1Nc2ccccc2C1=CNc1ccc(CNc2ccc(S(=O)(=O)Nc3ncccn3)cc2)cc1 [Compound 11b, 4-{[4-({[2-Oxoindolin-3-ylidene]methyl}amino)benzyl]amino}-N-(pyrimidin-2-yl)benzenesulfonamide]",11.5%,1.02%,48.4%,16.6%,17.4%,8.34%,8.3%,37.2%,42.2%,15.4%,14.2%,16%,77.3%,7.38%,39.3%,Selectivity ratio II/XII (hCA XII): 0.31; Cell Growth inhibition Percent (UO-31; 10 μM single dose): 39.47%
260 to 262 °C,> 10000 nM,> 10000 nM,> 10000 nM,–,"O=C1Nc2ccccc2C1=CNc1ccc(C(=O)C=CNc2nccs2)cc1 [Compound 13c, 3-{[(4-{3-[Thiazol-2-ylamino]acryloyl}phenyl)amino]methylene}indolin-2-one]",3.49%,–,30.8%,–,25.9%,10.7%,9.06%,28.1%,6%,11.4%,15.3%,16.8%,59%,3.28%,16.2%,–

SMILES,melting point,Ki (hCA XII),Ki (hCA II),Ki (hCA I),Selectivity ratio I/XII (hCA XII),inhibition at 10 µM (OVCAR-4),inhibition at 10 µM (SF-268),inhibition at 10 µM (CAKI-1),inhibition at 10 µM (SNB-75),inhibition at 10 µM (NCI-H23),inhibition at 10 µM (MDA-MB-231/ATCC),inhibition at 10 µM (LOX IMVI),inhibition at 10 µM (MCF7),inhibition at 10 µM (SR),inhibition at 10 µM (HOP-92),inhibition at 10 µM (PC-3),inhibition at 10 µM (EKVX),inhibition at 10 µM (KM12),inhibition at 10 µM (NCI 60 cancer cell lines),inhibition at 10 µM (UO-31),also measured
"O=C(Nc1ccc(NC=C2C(=O)Nc3ccccc32)cc1)Nc1nccs1 [Compound 15c, 1-{4-[((2-Oxoindolin-3-ylidene)methyl)amino]phenyl}-3-(thiazol-2-yl)urea]",–,> 10000 nM,> 10000 nM,> 10000 nM,–,59.4%,22.8%,67.1%,66.6%,62.2%,52%,64.9%,77.3%,89.3%,50.2%,31.4%,65.4%,40.8%,61.8%,51.6%,–
